{"source": "patent US12612392B2", "about": "“Compound, pharmaceutical compositions containing same, synthesis method therefor and use thereof” (SHENZHEN ZHONGGE BIOLOGICAL TECHNOLOGY CO., LTD., priority 2022, dated 2026)", "key": {"CYP2C9": {"target": "T1, CYP2C9 (Homo sapiens, UniProt P11712)", "T1 construct": "A phosphate buffer solution of liver microsomes was prepared; from tissue; host or cells: human liver microsomes", "T1 sequence (P11712 whole entry)": "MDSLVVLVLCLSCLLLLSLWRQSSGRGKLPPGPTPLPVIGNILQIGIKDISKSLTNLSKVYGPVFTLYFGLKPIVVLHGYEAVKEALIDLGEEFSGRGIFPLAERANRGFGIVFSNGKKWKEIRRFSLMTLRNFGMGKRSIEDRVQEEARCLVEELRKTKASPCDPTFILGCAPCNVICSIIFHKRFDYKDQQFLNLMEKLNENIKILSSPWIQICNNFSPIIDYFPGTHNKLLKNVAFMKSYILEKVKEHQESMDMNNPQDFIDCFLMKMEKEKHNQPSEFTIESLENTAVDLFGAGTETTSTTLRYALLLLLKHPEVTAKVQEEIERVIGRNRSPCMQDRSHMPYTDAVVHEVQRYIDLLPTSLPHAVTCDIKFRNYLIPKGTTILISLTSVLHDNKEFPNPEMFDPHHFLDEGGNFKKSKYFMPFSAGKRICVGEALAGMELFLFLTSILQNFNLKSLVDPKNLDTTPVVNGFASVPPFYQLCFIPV", "assay": "P450 enzyme inhibition, CYP2C9", "assay_type": "in vitro ADME", "conditions": "human liver microsome, substrate Diclofenac sodium", "experimental": "(§1) A phosphate buffer solution of liver microsomes was prepared. 169 μL of the phosphate buffer solution of liver microsomes and 1 μL of working solutions of various concentrations of test compounds or positive control compounds were added to a 96-well plate. The culture plate was placed in a water bath and pre-heated at 37° C. for 15 minutes. After the incubation, 10 μL of substrates were added to the culture plate (1 μL of substrates and 9 μL of the K-Mg buffer solution were added to the plate for CYP3A4-T). The incubation mixture was mixed on a rotating mixer for 10 seconds, and then 20 μL of a 10 mM NADPH solution was added to start the reaction at a final concentration of 1 mM. The experiment was repeated twice. At the predetermined time points listed in Table 4, the reaction was quenched by adding 400 μL of the quenching solution (cold ACN containing 500 nM mephetedrine and 10 nM terfenadine). Centrifugation was performed at 3220 g for 50 minutes at 4° C. 100 μl of the supernatant was transferred to a new plate. The supernatant was diluted with 100 μL of pure water. The mixture was mixed evenly, and the sample was analyzed by UPLC-MS/MS."}, "CYP2C19": {"target": "T2, CYP2C19 (Homo sapiens, UniProt P33261)", "T2 construct": "A phosphate buffer solution of liver microsomes was prepared; from tissue; host or cells: human liver microsomes", "T2 sequence (P33261 whole entry)": "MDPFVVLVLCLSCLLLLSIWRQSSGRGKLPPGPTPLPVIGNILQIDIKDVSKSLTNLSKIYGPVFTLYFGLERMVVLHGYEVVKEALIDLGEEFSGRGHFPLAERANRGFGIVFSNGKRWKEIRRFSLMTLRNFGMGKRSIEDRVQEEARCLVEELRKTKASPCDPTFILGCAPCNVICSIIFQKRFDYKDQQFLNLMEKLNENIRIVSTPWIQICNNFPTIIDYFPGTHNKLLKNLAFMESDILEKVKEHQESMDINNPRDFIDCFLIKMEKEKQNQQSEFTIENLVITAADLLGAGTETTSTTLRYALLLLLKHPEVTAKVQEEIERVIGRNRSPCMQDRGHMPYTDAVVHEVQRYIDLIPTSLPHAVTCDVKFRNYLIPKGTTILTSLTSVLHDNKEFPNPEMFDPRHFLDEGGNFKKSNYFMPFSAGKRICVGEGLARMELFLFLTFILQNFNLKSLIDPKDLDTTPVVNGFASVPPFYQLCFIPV", "assay": "P450 enzyme inhibition, CYP2C19", "assay_type": "in vitro ADME", "conditions": "human liver microsome, substrate Mephenytoin", "experimental": "as §1"}, "[1]": {"assay": "Kinetic solubility evaluation", "assay_type": "physicochemical", "conditions": "kinetic from dmso stock, 37° C.", "experimental": "The test compounds were dissolved in DMSO to prepare 10 mM stock solutions. 8.71 g of K2HPO4 was added to 500 mL of deionized water to prepare a 100 mM K2HPO4 solution. 2.05 g of potassium dihydrogen phosphate was added to 150 ml of deionized water to prepare a 100 mM potassium dihydrogen phosphate solution. 405 mL of 100 mM K2HPO4 and 95 mL of 100 mM KH2PO4 were mixed, and the mixed solution was adjusted to pH 7.4 by a 100 mM K2HPO4/KH2PO4 solution. 10.41 g of FaSSIF buffer concentrate was added to 240.3 g of deionized water to prepare a buffer solution (fasted-state simulated intestinal fluid, pH=6.5). 4.071 g of FeSSIF buffer concentrate was added to 45.97 g of deionized water to prepare a buffer solution (fed-state simulated intestinal fluid, pH=5.0).\n[…] (for PBS) or 37° C. (for others). After the incubation, the solution was transferred to a filter plate. All samples were filtered. 5 μL of the filtrate was added to 5 μL of DMSO, and 490 μl of an aqueous acetonitrile solution containing the internal standard (1:1), and the mixture was mixed evenly. Based on the properties of the compound and its response in mass spectrometry, dilution with an aqueous acetonitrile solution containing the internal standard (1:1) was performed. The dilution factor was varied according to the solubility value and UPLC-MS/MS signal response."}, "CYP1A2": {"target": "T3, CYP1A2 (Homo sapiens, UniProt P05177)", "T3 construct": "A phosphate buffer solution of liver microsomes was prepared; from tissue; host or cells: human liver microsomes", "T3 sequence (P05177 1-516)": "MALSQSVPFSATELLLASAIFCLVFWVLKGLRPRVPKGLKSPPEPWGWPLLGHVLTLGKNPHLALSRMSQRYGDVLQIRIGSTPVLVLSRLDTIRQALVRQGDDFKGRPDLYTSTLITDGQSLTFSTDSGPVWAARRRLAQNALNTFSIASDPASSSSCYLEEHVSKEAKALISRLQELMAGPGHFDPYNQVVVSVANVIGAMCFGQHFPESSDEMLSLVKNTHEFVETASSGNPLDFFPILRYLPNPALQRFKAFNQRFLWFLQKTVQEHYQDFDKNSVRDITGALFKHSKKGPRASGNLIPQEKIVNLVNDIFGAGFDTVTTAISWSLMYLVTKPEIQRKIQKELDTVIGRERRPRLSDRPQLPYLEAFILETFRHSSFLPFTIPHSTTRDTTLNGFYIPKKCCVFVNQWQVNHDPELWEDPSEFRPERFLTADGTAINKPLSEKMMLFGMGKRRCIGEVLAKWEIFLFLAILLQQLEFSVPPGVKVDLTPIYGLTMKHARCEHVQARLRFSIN", "assay": "P450 enzyme inhibition, CYP1A2", "assay_type": "in vitro ADME", "conditions": "human liver microsome, substrate Phenacetin", "experimental": "as §1"}}}
{"smiles": "O=C(COc1ccc(Cl)c(F)c1)N[C@H]1CC[C@H](c2nnc(N3CC(OC(F)(F)F)C3)o2)CC1", "note": "[Compound 6]", "values": [{"measurement": "IC50", "setting": "CYP2C9", "value": "> 10", "unit": "µM"}, {"measurement": "IC50", "setting": "CYP2C19", "value": "> 10", "unit": "µM"}, {"measurement": "solubility at 1.5 h", "setting": "[1]; FaSSIF buffer (fasted-state simulated intestinal fluid), fassif, fasted-state simulated intestinal fluid (pH=6.5)", "value": "> 10", "unit": "µg/mL"}, {"measurement": "solubility at 1.5 h", "setting": "[1]; FeSSIF buffer (fed-state simulated intestinal fluid), fessif, fed-state simulated intestinal fluid (pH=5.0)", "value": "> 80", "unit": "µg/mL"}, {"measurement": "IC50", "setting": "CYP1A2", "value": "> 10", "unit": "µM"}]}
